Structures are written as SMILES.

This series is described as follows: method code SF-AS, from DOI: 10.1111/j.2042-7158.1992.tb05470.x, PMID: 1357140. The settings on record: pH 7.4.

Turning to `CC(C)NC(=S)NS(=O)(=O)c1cnccc1NC1CCCCCC1`, the logD (in general, lipophilicity at a set pH, counting ionised and neutral species) was 0.96.

Source of the values: the SangsterLogP compilation.
